The values that follow come from ChEMBL document CHEMBL3124929, “Novel S1P(1) receptor agonists--part 3: from thiophenes to pyridines” (J Med Chem, 2014).

Data set [1] is described as follows: Plasma concentration in Wistar rat at 10 mg/kg, po after 6 hrs. In kind it is ADME, organism-based. Also on record: dose 10 mg/kg, route oral.
Data set [2] in a line: Plasma concentration in Wistar rat at 10 mg/kg, po after 24 hrs. Type of data set: ADME, organism-based. Also on record: dose 10 mg/kg, route oral.
A short description of data set [3]: Drug uptake in Wistar rat brain at 10 mg/kg, po after 2 hrs. In kind it is ADME, organism-based. Also on record: dose 10 mg/kg, route oral. The settings on record: read-out: Drug uptake.
Data set [4] is described as follows: Drug uptake in Wistar rat brain at 10 mg/kg, po after 6 hrs. Type of data set: ADME, organism-based. Set-up: dose 10 mg/kg, route oral. The settings on record: read-out: Drug uptake.
Data set [5] can be described thus: Drug uptake in Wistar rat brain at 10 mg/kg, po after 24 hrs. Type of data set: ADME, organism-based. Also on record: dose 10 mg/kg, route oral. To be noted: read-out: Drug uptake.
Data set [6] is described as follows: Plasma concentration in Wistar rat at 10 mg/kg, po after 2 hrs. In kind it is ADME, organism-based. Also on record: dose 10 mg/kg, route oral.
The nature of data set [7]: AUC (0 to 24 hrs) in cynomolgus monkey at 1 mg/kg, po by LC-MS/MS analysis. Type of data set: ADME, organism-based, Macaca fascicularis. Also on record: time < 24 hr, dose 1 mg/kg, route oral. To be noted: plasma.
Data set [8] can be described thus: Tmax in cynomolgus monkey at 1 mg/kg, po by LC-MS/MS analysis. In kind it is ADME, organism-based, Macaca fascicularis. Set-up: dose 1 mg/kg, route oral. The settings on record: in vivo.
The nature of data set [9]: Volume of distribution at steady state in Beagle dog at 1 mg/kg, iv by LC-MS/MS analysis. In kind it is ADME, organism-based, Canis lupus familiaris. Also on record: dose 1 mg/kg, route intravenous. To be noted: in vivo, read-out: Vdss.
Data set [10] in a line: Oral bioavailability in cynomolgus monkey at 1 mg/kg by LC-MS/MS analysis. The settings on record: in vivo. Type of data set: ADME, organism-based, Macaca fascicularis.
A short description of data set [11]: AUC (0 to 32 hrs) in Wistar rat at 10 mg/kg, po by LC-MS/MS analysis. Type of data set: ADME, organism-based. Also on record: time < 32 hr, dose 10 mg/kg, route oral. To be noted: plasma.
Data set [12] in a line: Oral bioavailability in Wistar rat at 10 mg/kg by LC-MS/MS analysis. Type of data set: ADME, organism-based. To be noted: in vivo.
Data set [13] is described as follows: AUC (0 to 24 hrs) in Beagle dog at 3 mg/kg, po by LC-MS/MS analysis. In kind it is ADME, organism-based, Canis lupus familiaris. Set-up: time < 24 hr, dose 3 mg/kg, route oral. To be noted: plasma.
Data set [14] can be described thus: AUC (0 to infinity) in cynomolgus monkey at 1 mg/kg, iv by LC-MS/MS analysis. Set-up: time infinity, dose 1 mg/kg, route intravenous. To be noted: plasma. Type of data set: ADME, organism-based, Macaca fascicularis.
Data set [15] in a line: Cmax in Wistar rat at 10 mg/kg, po by LC-MS/MS analysis. In kind it is ADME, organism-based. Set-up: dose 10 mg/kg, route oral. The settings on record: in vivo.
Data set [16] in a line: Tmax in Beagle dog at 3 mg/kg, po by LC-MS/MS analysis. In kind it is ADME, organism-based, Canis lupus familiaris. Set-up: dose 3 mg/kg, route oral. To be noted: in vivo.
Data set [17] in a line: AUC (0 to infinity) in Beagle dog at 1 mg/kg, iv by LC-MS/MS analysis. Type of data set: ADME, organism-based, Canis lupus familiaris. The settings on record: plasma. Set-up: time infinity, dose 1 mg/kg, route intravenous.
Data set [18] in a line: Oral bioavailability in Beagle dog at 3 mg/kg by LC-MS/MS analysis. In kind it is ADME, organism-based, Canis lupus familiaris. To be noted: in vivo.
A short description of data set [19]: Tmax in Wistar rat plasma at 10 mg/kg, po. In kind it is ADME, organism-based. Set-up: dose 10 mg/kg, route oral.
Data set [20] in a line: Cmax in cynomolgus monkey at 1 mg/kg, po by LC-MS/MS analysis. Type of data set: ADME, organism-based, Macaca fascicularis. Also on record: dose 1 mg/kg, route oral. The settings on record: in vivo.
The nature of data set [21]: Volume of distribution at steady state in cynomolgus monkey at 1 mg/kg, iv by LC-MS/MS analysis. To be noted: in vivo, read-out: Vdss. Also on record: dose 1 mg/kg, route intravenous. In kind it is ADME, organism-based, Macaca fascicularis.
Data set [22] in a line: Tmax in Wistar rat at 10 mg/kg, po by LC-MS/MS analysis. Type of data set: ADME, organism-based. Set-up: dose 10 mg/kg, route oral. The settings on record: in vivo.
Data set [23] can be described thus: Cmax in Beagle dog at 3 mg/kg, po by LC-MS/MS analysis. In kind it is ADME, organism-based, Canis lupus familiaris. Also on record: dose 3 mg/kg, route oral. The settings on record: in vivo.
Data set [24] is described as follows: AUC (0 to infinity) in Wistar rat at 1 mg/kg, iv by LC-MS/MS analysis. Also on record: time infinity, dose 1 mg/kg, route intravenous. To be noted: plasma. Type of data set: ADME, organism-based.
Data set [25] is described as follows: Tmax in Wistar rat brain at 10 mg/kg, po. Type of data set: ADME, organism-based. Set-up: dose 10 mg/kg, route oral.
Data set [26] can be described thus: Volume of distribution at steady state in Wistar rat at 1 mg/kg, iv by LC-MS/MS analysis. In kind it is ADME, organism-based. Set-up: dose 1 mg/kg, route intravenous. To be noted: in vivo, read-out: Vdss.
Data set [27] in a line: AUC (0 to infinity) in Wistar rat at 0.5 mg/kg, iv by LC-MS/MS analysis. Type of data set: ADME, organism-based. Also on record: time infinity, dose 0.5 mg/kg, route intravenous. The settings on record: plasma.
Data set [28] is described as follows: Cmax in Wistar rat at 1 mg/kg, po by LC-MS/MS analysis. Set-up: dose 1 mg/kg, route oral. In kind it is ADME, organism-based. To be noted: in vivo.
Data set [29] is described as follows: Oral bioavailability in Wistar rat at 1 mg/kg by LC-MS/MS analysis. To be noted: in vivo. In kind it is ADME, organism-based.
The nature of data set [30]: AUC (0 to 24 hrs) in Wistar rat at 1 mg/kg, po by LC-MS/MS analysis. Type of data set: ADME, organism-based. Set-up: time < 24 hr, dose 1 mg/kg, route oral. The settings on record: plasma.
Data set [31] is described as follows: Volume of distribution at steady state in Wistar rat at 0.5 mg/kg, iv by LC-MS/MS analysis. Also on record: dose 0.5 mg/kg, route intravenous. To be noted: in vivo, read-out: Vdss. Type of data set: ADME, organism-based.
Data set [32] is described as follows: Tmax in Wistar rat at 1 mg/kg, po by LC-MS/MS analysis. In kind it is ADME, organism-based. Set-up: dose 1 mg/kg, route oral. The settings on record: in vivo.
Data set [33] can be described thus: Plasma concentration in Wistar rat at 10 mg/kg, po after 3 hrs. In kind it is ADME, organism-based. Set-up: dose 10 mg/kg, route oral.
Data set [34] can be described thus: AUC (0 to 24 hrs) in Wistar rat at 10 mg/kg, po by LC-MS/MS analysis. In kind it is ADME, organism-based. Also on record: time < 24 hr, dose 10 mg/kg, route oral. To be noted: plasma.

Regarding `CCc1cc(-c2nnc(-c3cc(C)nc(N(CC)CC)c3)o2)cc(C)c1OC[C@@H](O)CNC(=O)CO`, the concentration at 6 h in data set [1] came to 510 ng/mL; in data set [4], 52 ng/mL. The concentration at 24 h in [2] is 8 ng/mL; in [5] it was 3 ng/mL. The values for the concentration at 2 h in data set [3] and in [6] were 46 ng/mL and 815 ng/mL, respectively.
Regarding `CCc1cc(-c2noc(-c3cc(C)nc(N(CC)CC)c3)n2)cc(C)c1OC[C@@H](O)CO`, the concentration at 6 h in data set [1] worked out at 254 ng/mL; in data set [4], 271 ng/mL. The concentration at 24 h in [2] came to 22 ng/mL; in data set [5], 34 ng/mL. Further, the concentration at 2 h stood at 435 ng/mL in data set [3] and 608 ng/mL in [6].
A word on the AUC(0-t): it is the area under the concentration-time curve up to a stated or last time point. By Tmax is commonly meant the time from dosing to the highest level. In general, AUC(0-inf) refers to the area under the concentration-time curve extrapolated to infinity. By Cmax is commonly meant the highest concentration seen after dosing. `CCc1cc(-c2noc(-c3cc(C)nc(N(CC)CC)c3)n2)cc(C)c1OC[C@@H](O)CNC(=O)CO`: the figures for the AUC(0-t) at 24 h in [7] and in data set [13] were 866 ng·h/mL and 3250 ng·h/mL, respectively. The time to peak (Tmax) is 2 h in data set [8]; 1 h in [16]; 2 h in data set [19]; 2 h in [22]; 6 h in data set [25]. Moreover, the results for the Vd in [9], in data set [21] and in data set [26] were 1.2 L/kg, 1.1 L/kg and 3.5 L/kg, respectively. In addition, the bioavailability in [10] turned out to be 16%; in data set [12] it was 52%; in data set [18] it was 32%. This molecule yielded an AUC(0-t) at 32 h in data set [11] of 16500 ng·h/mL. The concentration at 6 h was 1780 ng/mL in data set [1] and 653 ng/mL in data set [4]. Moreover, the AUC(0-inf) in data set [14] was 5450 ng·h/mL; in data set [17] it was 3350 ng·h/mL; in data set [24] it was 3200 ng·h/mL. For the same molecule, the concentration at 24 h stood at 412 ng/mL in [2] and 487 ng/mL in data set [5]. In addition, the values for the Cmax in data set [15], in data set [20] and in data set [23] were 1090 ng/mL, 97 ng/mL and 546 ng/mL, respectively. Further, the concentration at 2 h was determined as 269 ng/mL in [3] and 2170 ng/mL in data set [6].
In the case of `CCc1cc(-c2nnc(-c3cc(C)nc(N(CC)CC)c3)o2)cc(C)c1OC[C@@H](O)CO`, the values for the concentration at 6 h in data set [1] and in [4] were 315 ng/mL and 215 ng/mL, respectively. In addition, the concentration at 24 h in data set [2] is 4 ng/mL; in data set [5], 2 ng/mL. Besides, the figures for the concentration at 2 h in data set [3] and in data set [6] were 600 ng/mL and 820 ng/mL, respectively.
Take `CCc1cc(-c2nc(-c3cc(C)nc(N(CC)CC)c3)no2)cc(C)c1OC[C@@H](O)CNC(=O)CO`: the concentration at 6 h amounted to 918 ng/mL in data set [1] and 369 ng/mL in data set [4]. Moreover, the concentration at 24 h in data set [2] is 230 ng/mL; in [5] it was 301 ng/mL. For the same molecule, the concentration at 2 h in data set [3] was 140 ng/mL; in data set [6], 875 ng/mL.
In data set [27], `CCc1cc(-c2noc(-c3cc(C)nc(C4CCCC4)c3)n2)cc(C)c1OC[C@@H](O)CNC(=O)CO` came in with an AUC(0-inf) of 566 ng·h/mL. The same molecule returned a Cmax in data set [28] of 49 ng/mL. The bioavailability in data set [29] was 39%. In data set [30], this molecule yielded an AUC(0-t) at 24 h of 436 ng·h/mL. The Vd in data set [31] was found to be 7.3 L/kg. For the same molecule, the Tmax in data set [32] was 3 h.
Turning to `CCc1cc(-c2noc(-c3cc(C)c(C4CCCC4)cn3)n2)cc(C)c1OC[C@@H](O)CNC(=O)CO`, the concentration at 6 h in data set [1] amounted to 3690 nM. Also, the concentration at 3 h in [33] turned out to be 4910 nM. In data set [2], this molecule came in with a concentration at 24 h of 800 nM.
Consider `CCc1cc(-c2noc(-c3cc(C)nc(C(CC)CC)c3)n2)cc(C)c1OC[C@@H](O)CNC(=O)CO`, for which the AUC(0-inf) in data set [27] is 69.9 ng·h/mL. Moreover, the bioavailability in [12] worked out at 126%. For the same molecule, the AUC(0-t) at 24 h in data set [34] worked out at 1760 ng·h/mL. Besides, the Cmax in [15] worked out at 804 ng/mL. Further, the time of peak concentration (Tmax) in data set [22] came to 0.5 h. The Vd in data set [31] came to 3.4 L/kg.
Regarding `CCc1cc(-c2noc(-c3cc(C4CCCC4)cc(C)n3)n2)cc(C)c1OC[C@@H](O)CNC(=O)CO`, the concentration at 6 h in data set [1] stood at 1070 nM. The concentration at 3 h in data set [33] turned out to be 1890 nM. Further, in data set [2], the concentration at 24 h was found to be 9 nM.
